# Literature values in patent US20230190651A1, “Topical Aerosol Foams” (ARCUTIS BIOTHERAPEUTICS, INC., priority 2021, published 2023).
# Counter-ions that a name gives are not always drawn.
row,Water Solubility,Molecule
1,"2,140 mg/liter",O=C(O)CCCCCCCC(=O)O [azelaic acid]
2,13.5 mg/L,C=C1/C(=C\C=C2/CCC[C@]3(C)[C@@H]([C@H](C)/C=C/[C@@H](O)C4CC4)CC[C@@H]23)C[C@@H](O)C[C@@H]1O [calcipotriene]
3,"250,000 mg/liter",CCC[C@@H]1C[C@@H](C(=O)N[C@@H]([C@H]2O[C@H](SC)[C@H](OP(=O)(O)O)[C@@H](O)[C@H]2O)[C@H](C)Cl)N(C)C1 [clindamycin phosphate]
4,4 mg/L,CCC(=O)O[C@]1(C(=O)CCl)[C@@H](C)C[C@H]2[C@@H]3CCC4=CC(=O)C=C[C@]4(C)[C@@]3(F)[C@@H](O)C[C@@]21C [clobetasol propionate]
5,59 mg/L,CC1(C)O[C@@H]2C[C@H]3[C@@H]4CCC5=CC(=O)C=C[C@]5(C)[C@H]4[C@@H](O)C[C@]3(C)[C@]2(C(=O)CO)O1 [desonide]
6,14 mg/L,CCC(=O)O[C@]1(C(=O)CCl)[C@@H](C)C[C@H]2[C@@H]3C[C@H](F)C4=CC(=O)C=C[C@]4(C)[C@@]3(F)[C@@H](O)C[C@@]21C [halobetasol propionate]
7,"145,000 mg/liter",Cc1cc(C(C)(C)C)c(O)c(C)c1CC1=NCCN1 [oxymetazoline hydrochloride]
8,0.54 mg/L,O=C(Nc1c(Cl)cncc1Cl)c1ccc(OC(F)F)c(OCC2CC2)c1 [roflumilast]
9,32 mg/L,CCOC(=O)c1ccc(C#Cc2ccc3c(c2)C(C)(C)CCS3)nc1 [tazarotene]
10,"1,190,000 mg/liter",NC(N)=O [urea]

row,Molecule,Water Solubility
1,CC(=O)N1CCN(c2ccc(OCC3COC(Cn4ccnc4)(c4ccc(Cl)cc4Cl)O3)cc2)CC1 (stereo not drawn) [ketoconazole],0.09 mg/L
2,ivermectin,4 mg/L
